In data set [1] the target is T1, 3R Shaker Kv channel (M356R/A359R) (Drosophila melanogaster, UniProt P08510, A359R/DEL6-46/M356R). Put plainly: in vitro. The settings on record: for pKa at 100 μM: Drosophila, functional pH dependence, read-out: Functional pKa (pH where half of the maximum G(V) shift was achieved); for G(V) shift: mean. Format: cell-based. From the text:
(§1) Experiments were made with the Shaker H4 channel incapable of fast N-type inactivation due to a Δ6-46 deletion, referred to as the wt Shaker Kv channel. The 3R Shaker Kv channel with two additional positively charged arginines (M356R/A359R) in the extracellular end of S4, was also used.
(§2) For the Shaker channels, Bluescript II KS(+) plasmid was linearized with HindIII and synthesis of cRNA were made with the T7 mMessage mMachine kit (Ambion, Austin, Tex.). Point mutations around S4, on the Shaker Kv channel, were introduced using QuickChange Site-Directed Mutagenesis Kit (Agilent Technologies, Santa Clara, Calif.) and sequencing were used for verification.
(§3) 50 nl cRNA was injected into Xenopus laevis oocytes using a Nanoject injector (Drummond Scientific, Broomall, Pa.) and the oocytes were stored at 8° C. in a modified Barth's solution (MBS) before experiments (16° C., M-channel, 1-2 days). The MBS contained (in mM): 88 NaCl, 1 KCl, 2.4 NaHCO3, 15 HEPES, 0.33 Ca(NO3)2, 0.41 CaCl2), and 0.82 MgSO4, pH was adjusted to 7.5 by NaOH and the MBS was supplemented sodium pyruvate (2.5 mM). All animal experiments were approved by the Linkoping's local Animal Care and Use Committee.
(§4) Currents were measured 1-6 days after cRNA injection using the two-electrode voltage clamp technique (GeneClamp 500B amplifier, Axon instruments). Signals were low pass filtered at 5 kHz and digitized by a Digidata 1440A converter (Molecular Devices, Sunnyvale, Calif.). The amplifiers leak compensation was used and Clampex 10.2 software (Molecular Devices) was used to obtain data and create voltage protocols. The extracellular control solution contained (in mM): 1 KCl, 88 NaCl, 0.8 MgCl2, 0.4 CaCl2) and 15 HEPES. pH were adjusted with NaOH. Electrode pipettes were made from borosilicate glass capillaries (Harvard apparatus, Kent, UK) using a two stage electrode puller (Narishige, Tokyo, Japan) and resistance was between 0.5-2.0 MO once filled with 3 M KCl solution. In the voltage protocol for the wt and 3R Shaker channel, holding potential was set to −80 mV and steady-state currents were measured at voltages between −80 and +50 mV (wt Shaker Kv channel) or +70 mV (3R Shaker Kv channel), using 5 mV increments, 100 ms. […] Physiol. 143, 173-182 (2014). For the M-channel, holding potential was set to −100 mV, test-voltages were measured between −120 and +50 mV (10 mV increments for 2 s) and tail currents were measured at −30 mV.
(§5) Control solution was perfused to the recording chamber (0.5 ml/min) and the test solution was added manually with a syringe, in a volume large enough to replace the control solution manifold. Resin acids compounds were dissolved in DMSO (100 mM) and stored at −20° C. Just prior to experiment the compound was diluted to desired concentration in control solution. Recovery was measured after continuously perfusion of control solution, maximum 5 min. All recordings were made with the perfusion off. Experiments were carried out in room temperature (20-23° C.) and chemicals were purchased from Sigma Aldrich if not stated otherwise.
(§6) Currents were leak subtracted and steady-state currents were measured 80-86 ms after onset of the test voltages (Clampfit 10.5, Molecular Devices). K conductance, GK, was calculated using,
(§7) where IK is the steady-state current, V the absolute membrane voltage and VK the reversal potential for K ions (−80 mV), and the following Boltzmann curve was used to fit the data:
(§8) GK(V)=A/(1+exp((V1/2−V)/s)^n (2)
(§9) where A is the amplitude of the curve, V1/2 the midpoint when n=1, s the slope and n an exponent for better curve fitting, set to n=4. The voltage shift was calculated at 10% of maximal conductance in control curve.
(§10) To quantify the concentration dependence or pH dependence of the GK(V) shifts the following equation was used:
(§11) ΔVG(V)=ΔVMAX/(1+c1/2/c), (3)

Data set [2] addresses T1, 3R Shaker Kv channel (M356R/A359R). The settings on record: cited from earlier work.
In data set [3] the target is wt Shaker Kv channel (Shaker H4, Δ6-46) (Drosophila melanogaster, UniProt P08510, DEL6-46). Put plainly: Two-electrode voltage clamp, G(V) shift on wt Shaker Kv channel expressed in Xenopus laevis oocytes. The settings on record: for G(V) shift: mean. The data set is classed as cell-based.
wt Shaker Kv channel (Shaker H4, Δ6-46), sequence (P08510 other isoform, or with tags, fused parts or gaps DEL6-46): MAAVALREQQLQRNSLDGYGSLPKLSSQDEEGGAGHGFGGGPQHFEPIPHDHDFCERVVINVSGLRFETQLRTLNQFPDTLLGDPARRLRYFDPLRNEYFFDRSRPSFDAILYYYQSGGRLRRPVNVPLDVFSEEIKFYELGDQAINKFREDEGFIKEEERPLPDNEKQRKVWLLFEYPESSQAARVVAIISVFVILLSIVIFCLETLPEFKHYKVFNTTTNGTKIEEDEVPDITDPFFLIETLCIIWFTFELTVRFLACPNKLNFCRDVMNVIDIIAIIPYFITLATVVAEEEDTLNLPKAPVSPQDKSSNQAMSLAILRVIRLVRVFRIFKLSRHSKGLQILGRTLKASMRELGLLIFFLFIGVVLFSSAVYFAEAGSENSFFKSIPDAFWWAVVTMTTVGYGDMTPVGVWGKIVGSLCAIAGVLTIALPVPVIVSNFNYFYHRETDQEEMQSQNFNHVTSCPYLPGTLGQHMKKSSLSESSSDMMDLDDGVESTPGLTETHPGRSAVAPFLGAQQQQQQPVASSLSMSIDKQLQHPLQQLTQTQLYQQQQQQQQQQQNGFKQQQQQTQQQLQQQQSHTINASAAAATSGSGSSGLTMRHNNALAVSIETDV
Source text: as §1, §2, §3, §4, §5, §6, §7, §8, §9, §10, §11
(Two-electrode voltage clamp holds a large cell at a set potential and records current.)

The next data set concerns the target T2, hKv7.2/Kv7.3 (M-channel) (Homo sapiens, UniProt O43525+O43526).
T2 construct: expressed in transfected cells; host or cells: Xenopus laevis oocytes (cRNAs mixed 1:1)
Put plainly: Two-electrode voltage clamp, G(V) shift on human M-channel expressed in Xenopus laevis oocytes. Format: cell-based. To be noted: for G(V) shift: pH 7.4, 100 μM, mean. As to the method:
Experiments were also made with the human hKv7.2/Kv7.3, referred to as the M-channel. cRNAs were mixed in a 1:1 molar ratio before injection into oocytes. hKv7.2 [GenBank Acc. No. NM_004518]. hKv7.3 [GenBank Acc. No NM_004519].
as §3, §4, §5
For the M channel tail currents were measured 18 ms after onset and then plotted against the test voltage. The Boltzmann curve (Eq. 2) was used to fit data and the slope was set to shared value between control and test compound. V1/2 was used to calculate the GK(V) shift.
as §10, §11
where ΔVG(v) is the voltage shift, ΔVMAX is the amplitude of the curve, c the concentration, c1/2 the concentration at which half maximum response occur. For compounds with no pH dependence the data was fitted with a horizontal line, with the slope set to 0.

The target of another data set is R362Q Shaker Kv channel (Drosophila melanogaster, UniProt P08510, DEL6-46/R362Q). Nature of the data set: G(V) shift on Shaker Kv channel S4 mutant R362Q compared with wt R362. To be noted: 100 μM, pH 7.4, FIG. 9D. Format: cell-based. As to the method: as §2
R362Q Shaker Kv channel, sequence (P08510 other isoform, or with tags, fused parts or gaps DEL6-46/R362Q): as the sequence (P08510 other isoform, or with tags, fused parts or gaps DEL6-46) above, with R321Q counted along it
Currents were measured 1-6 days after cRNA injection using the two-electrode voltage clamp technique (GeneClamp 500B amplifier, Axon instruments). Signals were low pass filtered at 5 kHz and digitized by a Digidata 1440A converter (Molecular Devices, Sunnyvale, Calif.). The amplifiers leak compensation was used and Clampex 10.2 software (Molecular Devices) was used to obtain data and create voltage protocols. The extracellular control solution contained (in mM): 1 KCl, 88 NaCl, 0.8 MgCl2, 0.4 CaCl2) and 15 HEPES. pH were adjusted with NaOH. […] In the voltage protocol for the wt and 3R Shaker channel, holding potential was set to −80 mV and steady-state currents were measured at voltages between −80 and +50 mV (wt Shaker Kv channel) or +70 mV (3R Shaker Kv channel), using 5 mV increments, 100 ms. […] For the M-channel, holding potential was set to −100 mV, test-voltages were measured between −120 and +50 mV (10 mV increments for 2 s) and tail currents were measured at −30 mV. […]

Where [4] appears, read: pH 7.4, concentration-response of G(V) shift, read-out: c1/2 (half-maximal concentration).

Where “and” joins values, the source holds several entries; their conditions need not be identical. Identical values can stand only once. Counter-ions that a name gives are not always drawn. Like-named read-outs stand apart in the source and are kept apart here.

T1 sequence (P08510 other isoform, or with tags, fused parts or gaps DEL6-46/M356R/A359R): as the sequence (P08510 other isoform, or with tags, fused parts or gaps DEL6-46) above, with M315R, A318R counted along it

Turning to `CC(C)c1ccc2c(c1)CC[C@H]1[C@](C)(C(=O)O)CCC[C@]21C` [DHAA, dehydroabietic acid], in data set [1], the pKa at 100 μM is 7.2. Moreover, in data set [2] (pH 7.4, data from Ottosson et al. Sci. Rep. 5, 13278 (2015), read-out: c1/2 (half-maximal concentration)), the EC50 was 98 µM.
For `C[C@@]1(C(=O)O)CCC[C@]2(C)c3cc(Cl)c(Cl)c(Cl)c3CCC12` (stereo partly drawn) [Wu50, reference compound], in data set [1] (pH 7.4), the “Increase of affinity compared to DHAA (factor)” value came out at 2.7 and the “Increase of amplitude/efficacy compared to DHAA (factor)” value was 1.7. Besides, the EC50 in data set [2] (read-out: c1/2 (half-maximal concentration), pH 7.4, data from Ottosson et al. Sci. Rep. 5, 13278 (2015)) was 37 µM and 36 µM.
Take `CC(C)c1ccc2c(c1)CC[C@H]1[C@](C)(C(=O)NCCS(=O)(=O)O)CCC[C@]21C` [Wu154, 2-((1R,4aS,10aR)-7-isopropyl-1,4a-dimethyl-1,2,3,4,4a,9,10,10a-octahydrophenanthrene-1-carboxamido)ethane-1-sulfonic Acid]: the pKa at 100 μM in data set [1] is < 7.4. For the same compound, the “G(V) shift” value in data set [1] (pH 7.4, 100 μM) was −9.85 mV; in data set [3] (pH 7.4, 100 μM) it was −2.48 mV; on hKv7.2/Kv7.3 (M-channel) it was −4.60 mV.
For the compound `CC(C)c1ccc2c(c1)CC[C@H]1[C@](C)(COS(=O)(=O)O)CCC[C@]21C` [Wu161, ((1R,4aS,10aR)-7-isopropyl-1,4a-dimethyl-1,2,3,4,4a,9,10,10a-octahydrophenanthren-1-yl)methyl Hydrogen Sulfate], the EC50 is 36 µM and 37 µM in data set [1] (setting [4]); 44 µM in data set [3] (setting [4]); 41.8 µM and 42 µM on hKv7.2/Kv7.3 (M-channel) (concentration-response of G(V) shift, read-out: c1/2 (half-maximal concentration)). In addition, the “Effect on R362Q compared with wt R362” value at R362Q Shaker Kv channel is listed as “about the same effects”.
With `CC(C)c1ccc2c(c1)CCC1[C@](C)(CCC(=O)O)CCC[C@]21C` (stereo partly drawn) [Wu179, 3-((1S,4aS)-7-isopropyl-1,4a-dimethyl-1,2,3,4,4a,9,10,10a-octahydrophenanthren-1-yl)propanoic Acid], the pKa at 100 μM in data set [1] was 7.5. Also, the “G(V) shift” value is 2.80 mV in data set [1] (pH 5.5, 100 μM); −3.23 mV in data set [1] (pH 6.5, 100 μM); −10.43 mV in data set [1] (pH 7.4, 100 μM); −16.63 mV in data set [1] (pH 9, 100 μM); −22.83 mV in data set [1] (pH 10, 100 μM); −3.83 mV in data set [3] (pH 10, 100 μM). The “G(V) shift” value at hKv7.2/Kv7.3 (M-channel) is recorded as −6.68 mV.

Values taken from patent US20200239412A1, “NEW DERIVATES OF DHAA WITH ELECTROSTATIC TUNING” (priority 2017, published 2020).
